Experimental data taken from paper PMC5089669, “Biocatalytic Properties and Structural Analysis of Eugenol Oxidase from Rhodococcus jostii RHA1: A Versatile Oxidative Biocatalyst” (Chembiochem, 2016).

Legend:
Eugenol oxidase (EUGO) [1] = target: T1, Eugenol oxidase (EUGO) (Rhodococcus jostii, UniProt Q0SBK1); assay: crystal structure; type: binding; details: covalent; His390 to C8M of flavin
T1 construct: gene RHA1_ro03282; homodimer
T1 sequence (Q0SBK1 1-526): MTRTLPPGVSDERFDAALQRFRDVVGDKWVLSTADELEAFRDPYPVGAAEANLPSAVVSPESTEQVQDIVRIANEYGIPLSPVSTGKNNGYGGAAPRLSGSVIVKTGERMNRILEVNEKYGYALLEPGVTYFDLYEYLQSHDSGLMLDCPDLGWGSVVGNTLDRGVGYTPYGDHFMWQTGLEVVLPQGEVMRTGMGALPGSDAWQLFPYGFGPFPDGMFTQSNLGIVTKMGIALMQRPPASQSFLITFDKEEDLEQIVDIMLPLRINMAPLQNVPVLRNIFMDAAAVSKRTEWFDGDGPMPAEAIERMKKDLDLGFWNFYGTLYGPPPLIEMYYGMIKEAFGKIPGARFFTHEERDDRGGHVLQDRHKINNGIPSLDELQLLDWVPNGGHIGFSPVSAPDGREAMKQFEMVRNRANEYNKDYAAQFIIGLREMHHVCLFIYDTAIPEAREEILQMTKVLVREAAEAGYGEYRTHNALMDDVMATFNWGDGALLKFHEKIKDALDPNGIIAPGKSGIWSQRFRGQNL

Eugenol oxidase (EUGO) [2] = target: T1, Eugenol oxidase (EUGO); assay: crystal structure of unsoaked native crystals; type: binding; details: weak inhibitor; density tentatively assigned, co-purified; active site Tyr-Tyr-Arg

Row | SMILES | crystal structure (Eugenol oxidase (EUGO) [1]) | crystal structure of unsoaked native crystals (Eugenol oxidase (EUGO) [2])
1 | Cc1cc2nc3c(=O)[nH]c(=O)nc-3n(C[C@H](O)[C@H](O)[C@H](O)COP(=O)(O)OP(=O)(O)OC[C@H]3O[C@@H](n4cnc5c(N)ncnc54)[C@H](O)[C@@H]3O)c2cc1C [FAD] | covalent bond between His390 (equivalent to His422 of VAO) and the C8M atom | –
2 | O=C(O)c1ccccc1 [benzoate] | – | we found benzoate to be a weak EUGO inhibitor
